Source: article PMC7664216, “An Odorant Binding Protein (SaveOBP9) Involved in Chemoreception of the Wheat Aphid Sitobion avenae” (International Journal of Molecular Sciences, 2020)
Entries after “also recorded” stand apart in the source; their conditions may differ. Read-outs that look alike come from different tables or passages of the source.

What was measured:
SaveOBP9 = SaveOBP9 (Sitobion avenae, UniProt A0A1I9ZLB6); assay: Fluorescence competitive ligand binding assay with probe 1-NPN; conditions: 1-NPN probe
Experimental: Methanol (spectrophotometric-grade) was used to prepare the standard solution of each tested ligand (Sigma Aldrich, St. Louis, MO, USA). The binding ability of 1-NPN was measured by adding 1-NPN (1 mM) into protein solution (2 μM L^−1) diluted with Tris-HCl (30 mM), and the final concentration was made to 0 to 20 μM L^−1 at room temperature.
The ligand’s binding with SaveOBP9 was conducted with three independent replicates.

Sitobion avenae = assay: Y-tube olfactometer behavioral bioassay; assay type: in vivo; conditions: for Behavioral response of S. avenae: wingless adults, odor 0.10% (v/v) vs liquid paraffin control, pre-RNAi; for Post-RNAi behavioral response of S. avenae: after 3 days of dsSaveOBP9 feeding (50 ng/µL), compared to dsGFP and Control
Description: Behavioral responses of Sitobion avenae were examined by using a glass Y-tube olfactometer (base = 2.0 cm diameter by 14 cm length, arms = 2.0 cm diameter by 13 cm length) using 7 different volatile compounds (Sigma-Aldrich, St. Louis, MO, USA). Air was passed through the activated charcoal for filtration at the continuous rate of 0.5 L/min and humidified using deionized water followed by the splitting of air between two arms of the olfactometer. One arm contained liquid paraffin (control) and the other had the test ligand. In addition, both chambers were connected to the central arm of the Y-tube. An aliquot of odors and liquid paraffin were loaded on with the concentration of 0.10% (v/v). Aphids were then placed in the trunk. Each insect was allowed 15 min to respond to the treatment, and the numbers of aphids showing attraction, repulsion, or no response were counted. Three replications (20 wingless aphids in each replication) for each group were applied.
Y-tube bioassays were carried out before and after dietary RNAi application to confirm the SaveOBP9 gene-silencing outcome. Two treatments containing liquid paraffin and seven compounds (Ki < 10 μM), 2-ethyl1-hexanol, decanal, tetradecane, hexadecane, octanal, α-farnesene, and hexanal, were used. Three treatments containing Control, dsGFP feeding and dsRNA feeding were tested in behavioral trials after 3 days of feeding. For the post-RNAi bioassays, individuals were tested using the compounds: Tetradecane, octanal, decanal, and hexadecane. These four ligands were carefully chosen based on the observation of significant responses of S.avenae to these compounds in bioassays performed prior to the application of dietary RNAi.

AlinOBP1 = tested on: AlinOBP1; design: method as in PMID 21541988; conditions: cited from earlier work
Aphis fabae = tested on: Aphis fabae; design: method as in PMID 18584254; conditions: Black bean aphid Aphis fabae; cited from earlier work
SaveOBP3 = tested on: SaveOBP3; design: method as in PMID 22306433; conditions: cited from earlier work
SaveOBP2 = tested on: SaveOBP2; design: method as in PMID 22306433; conditions: cited from earlier work
SaveOBP7 = tested on: SaveOBP7; design: method as in PMID 22306433; conditions: cited from earlier work

SaveOBP9, sequence (A0A1I9ZLB6 entry or part of it): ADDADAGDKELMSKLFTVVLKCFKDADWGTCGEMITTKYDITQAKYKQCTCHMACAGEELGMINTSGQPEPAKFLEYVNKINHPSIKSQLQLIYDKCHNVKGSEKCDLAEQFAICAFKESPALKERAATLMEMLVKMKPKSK

Molecule | IC50 (SaveOBP9; pH 5.0, read-out: IC50) [µM] | Ki (SaveOBP9; pH 5.0, read-out: Ki) [µM] | IC50 (SaveOBP9; pH 7.4, read-out: IC50) [µM] | Ki (SaveOBP9; pH 7.4, read-out: Ki) [µM] | IC50 (SaveOBP9; IC50, pH 5.0) [µM] | IC50 (SaveOBP9; IC50, pH 7.4) [µM] | Ki (SaveOBP9; Ki, pH 5.0) [µM] | Ki (SaveOBP9; Ki, pH 7.4) [µM] | also measured
CC12CCC(CC1=O)C2(C)C (racemic) [(±)-Camphor] | 17.4 | 15.7 | 48.2 | 42.8 | – | – | – | – | –
CC1=CCC2C(C1)C2(C)C (single isomer, unassigned; (+)) [(+)-3-Carene] | 39.9 | 36.1 | 14.7 | 13 | – | – | – | – | –
C=CC(O)CCCCC (centres unmarked) [1-Octen-3-ol] | 34.2 | 30.9 | 24.2 | 21.5 | – | – | – | – | –
CCCCC(CC)CO (centres unmarked) [2-Ethyl-1-hexanol] | 43.8 | 39.6 | 11.2 | 9.93 | – | – | – | – | Behavioral response of S. avenae (Sitobion avenae): did not show stimuli; Binding affinity (AlinOBP1): high binding affinity
C=CCCN=C=S [3-Butenyl isothiocyanate] | – | – | – | – | 26.3 | 52.7 | 23.8 | 46.8 | –
CC(=O)c1ccccc1 [Acetophenone] | 30.8 | 27.8 | 13 | 11.5 | – | – | – | – | –
O=Cc1ccccc1 [Benzaldehyde] | – | – | – | – | 41 | 109 | 37 | 96.5 | –
Cc1cc(C(C)(C)C)c(O)c(C(C)(C)C)c1 [Butylated Hydroxytoluene] | 8.8 | 7.95 | 45.6 | 40.5 | – | – | – | – | –
CCCCCCCCCC=O [Decanal] | 19.8 | 17.9 | 9.95 | 8.84 | – | – | – | – | Post-RNAi behavioral response of S. avenae (Sitobion avenae): non-significant preference; Behavioral response of S. avenae (Sitobion avenae): significantly showed attractive responses; also recorded: strongly attracted S. avenae; EAG response (Aphis fabae): significant electroantennography (EAG) response; Binding ability (SaveOBP3): None of the three SaveOBPs have the ability to bind; Binding ability (SaveOBP2): None of the three SaveOBPs have the ability to bind; Binding ability (SaveOBP7): None of the three SaveOBPs have the ability to bind
CCCCCCCCCCCCCCCC [Hexadecane] | 14.6 | 13.2 | 10.9 | 9.68 | – | – | – | – | Post-RNAi behavioral response of S. avenae (Sitobion avenae): non-significant preference; Behavioral response of S. avenae (Sitobion avenae): significantly showed attractive responses; also recorded: strongly attracted S. avenae; Binding ability (SaveOBP3): None of the three SaveOBPs have the ability to bind; Binding ability (SaveOBP2): None of the three SaveOBPs have the ability to bind; Binding ability (SaveOBP7): None of the three SaveOBPs have the ability to bind
CCCCCC=O [Hexanal] | – | – | – | – | 16.8 | 8.23 | 15.2 | 7.31 | Behavioral response of S. avenae (Sitobion avenae): did not show stimuli
C=CC(C)(O)CCC=C(C)C (centres unmarked) [Linalool] | – | – | – | – | 11.8 | 24.1 | 10.7 | 21.4 | –
COC(=O)c1ccccc1O [Methyl salicylate] | – | – | – | – | 24.2 | 13.4 | 21.9 | 11.9 | –
c1ccc2ccccc2c1 [Naphthalene] | – | – | – | – | 30.3 | 13 | 27.4 | 11.5 | –
CCCCCCCCC=O [Nonanal] | 12.3 | 11.1 | 39.8 | 35.4 | – | – | – | – | –
CCCCCCCC=O [Octanal] | 20.3 | 18.3 | 8.79 | 7.8 | – | – | – | – | Post-RNAi behavioral response of S. avenae (Sitobion avenae): non-significant preference; Behavioral response of S. avenae (Sitobion avenae): significantly showed attractive responses; also recorded: strongly attracted S. avenae; EAG response (Aphis fabae): significant electroantennography (EAG) response; Binding ability (SaveOBP3): relatively moderate binding ability; Binding ability (SaveOBP2): relatively moderate binding ability; Binding ability (SaveOBP7): no binding ability

Molecule | IC50 (SaveOBP9; pH 5.0, read-out: IC50) [µM] | Ki (SaveOBP9; pH 5.0, read-out: Ki) [µM] | IC50 (SaveOBP9; pH 7.4, read-out: IC50) [µM] | Ki (SaveOBP9; pH 7.4, read-out: Ki) [µM] | IC50 (SaveOBP9; IC50, pH 5.0) [µM] | IC50 (SaveOBP9; IC50, pH 7.4) [µM] | Ki (SaveOBP9; Ki, pH 5.0) [µM] | Ki (SaveOBP9; Ki, pH 7.4) [µM] | also measured
CCCCCCCCCCCCCCC [Pentadecane] | 15.1 | 13.7 | 12.8 | 11.4 | – | – | – | – | –
C=C(C)[C@@H]1CC=C(C)CC1 [S-(−)-Limonene] | 11.5 | 10.4 | 32.1 | 28.5 | – | – | – | – | –
CCCCCCCCCCCCCC [Tetradecane] | 11.9 | 10.7 | 7.96 | 7.07 | – | – | – | – | Post-RNAi behavioral response of S. avenae (Sitobion avenae): non-significant preference; Behavioral response of S. avenae (Sitobion avenae): significantly showed attractive responses; also recorded: strongly attracted S. avenae
CC/C=C\CCO [cis-3-Hexen-1-ol] | – | – | – | – | 36.9 | 13.2 | 33.3 | 11.8 | –
CC/C=C\CCOC(C)=O [cis-3-Hexenyl acetate] | – | – | 29.7 | 26.4 | – | – | – | – | –
CCC/C=C/C=O [trans-2-Hexen-1-al] | – | – | – | – | 21.6 | 41.9 | 19.5 | 37.2 | –
CCC/C=C/CO [trans-2-Hexen-1-ol] | – | – | – | – | 21.7 | 14.5 | 19.6 | 12.9 | –
C=CC(=C)CC/C=C(\C)CCC=C(C)C [trans-β-farnesene] | – | – | – | – | – | – | – | – | Binding ability (SaveOBP3): could bind; Binding ability (SaveOBP7): could bind
C=C/C(C)=C/C/C=C(\C)CCC=C(C)C [α-Farnesene] | 9.51 | 8.59 | 10.3 | 9.11 | – | – | – | – | Behavioral response of S. avenae (Sitobion avenae): did not show stimuli
CC1=CCC2CC1C2(C)C (stereo not drawn) [α-Pinene] | – | – | – | – | 27.2 | 38 | 24.6 | 33.7 | –
CC1=CC[C@@H](C(C)(C)O)CC1 [α-Terpineol] | – | – | – | – | 37.4 | 26.2 | 33.8 | 23.3 | –
C=C1CCC2CC1C2(C)C (stereo not drawn) [β -Pinene] | – | – | – | – | 27.7 | 37.4 | 25.1 | 33.2 | –
C=C1CC/C=C(\C)CC[C@@H]2[C@@H]1CC2(C)C [β-Caryophyllene] | – | – | – | – | 622 | 52.4 | 562 | 46.6 | –
C=CC(=C)CCC=C(C)C [β-Myrcene] | 10.7 | 9.67 | 12.2 | 10.8 | – | – | – | – | –
(+)-Limonene oxide | 37.5 | 33.9 | 24.3 | 21.6 | – | – | – | – | –
